# Test results reported in paper PMC9841576, “Characterisation of C101248: A novel selective THIK-1 channel inhibitor for the modulation of microglial NLRP3-inflammasome” (Neuropharmacology, 2023).
# System: other constitutively active resting conductance in microglia
# Assay: Whole-cell patch clamp of microglia in hippocampal slices: other resting and voltage-dependent currents
# Type: cell-based, mouse
# Settings: 5 μM
# Procedure: Acute hippocampal slices (300 μm thick), from 3 to 4 months old mice, were prepared using a specially adapted protective slicing solution ([Ting et al., 2014]) containing (mM) 93 choline chloride, 20 HEPES, 30 NaHCO3, 2.5 KCl, 0.5 CaCl2, 10 MgCl2, 1.2 NaH2PO4, 25 glucose, 1 kynurenic acid, 5 Na-ascorbate, 3 Na-pyruvate, pH adjusted to 7.4, bubbled with 95% O2/5% CO2 and cooled at <4 °C, and a recovery solution containing (mM) 92 NaCl, 20 HEPES, 30 NaHCO3, 2.5 KCl, 2 CaCl2, 1 MgCl2, 1.2 NaH2PO4, 25 glucose, 1 kynurenic acid, 5 Na-ascorbate, 3 Na-pyruvate, pH set to 7.4 and bubbled with 95% O2/5% CO2
# Immediately after slicing, slices were placed for 13 min in warm (33–35 °C) slicing solution and then transferred to recovery solution at room temperature until experimental usage. […] Slices were perfused with bicarbonate-buffered solution, at 34–36 °C for all experiments, containing (mM) 124 NaCl, 2.5 KCl, 26 NaHCO3, 1 NaH2PO4, 2 CaCl2, 1 MgCl2, 10 glucose, bubbled with 95% O2/5% CO2. Microglia were whole-cell clamped with electrodes containing K-gluconate based solution, comprising (mM) 130 K-glu, 4 NaCl, 1 CaCl2, 10 HEPES, 10 EGTA, 4 MgATP, 0.5 Na2GTP, pH set to 7.2 with KOH and osmolarity adjusted to […]. […] Currents were filtered at 1 kHz, digitized (10 kHz) and analysed off-line using pClamp10 software.
smiles,measurement,setting,value
Nc1nonc1-c1nc2ccccc2n1Cc1ccncc1 [C101248],effect on baseline membrane current in THIK-1 KO mice,"microglia voltage-clamped at 0 mV, THIK-1 KO mice",no further changes
same,effect on inward or outward currents induced by depolarising voltage steps,voltage steps −150 mV to +60 mV,no effect
